Test results taken from patent US6737383B1, “Herbicidal oxadiazolidines” (priority 1999, dated 2004).

Tests used:
[1] = system: green foxtail; test: Test E green foxtail; format: in vivo, Setaria viridis; details: Preemergence
[2] = system: sugar beet; test: Test B pre/postemergence sugar beet; format: in vivo, Beta vulgaris; details: for Sugarbeets plant response rating (0 to 10 scale): 0 is no effect
In short: (§1)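 Herbicidal effect was estimated by eye on a ten-point control scale after plants spent twelve to sixteen days in a greenhouse following soil or foliar treatment. Foliar sprays targeted plants at one to four leaves; all doses were formulated in a non-phytotoxic solvent with surfactant.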

[3] = system: rape; test: Test B pre/postemergence rape; format: in vivo, Brassica napus
In short: as §1

[4] = system: blackgrass; test: Test E blackgrass; format: in vivo, Alopecurus myosuroides; details: Preemergence
[5] = system: wild oat; test: Test E wild oat; format: in vivo, Avena fatua; details: Preemergence
[6] = system: winter barley; test: Test E winter barley; format: in vivo, Hordeum vulgare; details: Preemergence
[7] = system: bamyardgrass; test: Test B flood test barnyardgrass; format: in vivo, Echinochloa crus-galli
In short: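 Read-out is a visual response score from 0 (no effect) to 10 (complete control), assigned by comparison with untreated controls. Treatment was applied at the 2-leaf stage, and plants stayed in the greenhouse for twelve to sixteen days before scoring.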

[8] = system: winter wheat; test: Test E winter wheat; format: in vivo, Triticum aestivum; details: Postemergence, 0 to 100 scale
Method: […] All plant species were grown using normal greenhouse practices. Crop and weed species include annual bluegrass (Poa annua), blackgrass (Alopecurus myosuroides), black nightshade (Solanum nigra), chickweed (Stellaria media), common poppy (Papaver rhoeas), deadnettle (Lamium amplexicaule), downy brome (Bromus tectorum), field violet (Viola arvensis), galium (Galium aparine), green foxtail (Setaria viridis), Italian ryegrass (Lolium multiflorum), jointed goatgrass (Aegilops cylindrica), kochia (Kochia scoparia), lambsquarters (Chenopodium album), littleseed canarygrass (Phalaris minor), rape (Brassica napus), redroot pigweed (Amaranthus retroflexus), Russian thistle (Salsola kali), scentless chamomile (Matricaria inodora), spring barley (Hordeum vulgare), sugar beet (Beta vulgaris), sunflower (Helianthus annuus), ivyleaf speedwell (Veronica hederaefolia), spring wheat (Triticum aestivum), winter wheat (Triticum aestivum), wild buckwheat (Polygonum convolvulus), wild mustard (Sinapis arvensis), wild oat (Avena fatua), windgrass (Apera spica-venti) and winter barley (Hordeum vulgare).
Treated plants and untreated controls were maintained in a greenhouse for approximately 21 to 28 days, after which all treated plants were compared to untreated controls and visually evaluated. […] A dash response (-) means no test result.

[9] = system: winter wheat; test: Test E winter wheat; format: in vivo, Triticum aestivum; details: Preemergence
[10] = system: Italian ryegrass; test: Test E Italian ryegrass; format: in vivo, Lolium multiflorum; details: Preemergence
[11] = system: cocklebur; test: Test B pre/postemergence cocklebur; format: in vivo, Xanthium strumarium
In short: as §1

[12] = Rate 500 g/ha, 0 to 100 scale where 0 is no effect and 100 is complete control
[13] = Rate 1000 g/ha, 0 to 100 scale where 0 is no effect and 100 is complete control
[14] = Preemergence, Rate 62 g/ha, scale of 0 to 10 where 0 is no effect and 10 is complete control
[15] = Preemergence, Rate 125 g/ha, 10 is complete control
[16] = Preemergence, Rate 250 g/ha, scale 0 to 10, 0 is no effect, 10 is complete control
[17] = Preemergence, Rate 500 g/ha, scale of 0 to 10 where 0 is no effect and 10 is complete control
[18] = Rate 62 g/ha, Postemergence, scale of 0 to 10 where 0 is no effect and 10 is complete control
[19] = Rate 125 g/ha, Postemergence, scale 0 to 10
[20] = Rate 500 g/ha, Postemergence, scale 0 to 10
[21] = Preemergence, Rate 125 g/ha, 0 is no effect, 10 is complete control
[22] = Rate 31 g/ha, 0 to 100 scale, 0 no effect, 100 complete control
[23] = Rate 62 g/ha, 0 to 100 scale, 0 no effect, 100 complete control
[24] = Postemergence, Rate 62 g/ha, scale 0 to 10, 0 is no effect, 10 is complete control
[25] = Postemergence, Rate 125 g/ha, scale of 0 to 10 where 0 is no effect and 10 is complete control
[26] = Preemergence, Rate 62 g/ha, scale 0 to 10 (0 no effect, 10 complete control)
[27] = Preemergence, Rate 250 g/ha, scale of 0 to 10 where 0 is no effect and 10 is complete control
[28] = Preemergence, Rate 500 g/ha, scale 0 (no effect) to 10 (complete control)
[29] = Rate 500 g/ha, Postemergence, scale 0 to 10, 0 no effect, 10 complete control
[30] = Postemergence, Rate 250 g/ha, scale 0 to 10, 0 no effect, 10 complete control
[31] = Preemergence, Rate 125 g/ha, scale 0 to 10 (0 no effect, 10 complete control)

CC(C)N(C(=O)n1oc(=O)n(Cc2ccco2)c1=O)c1ccc(F)cc1F [Compound 208]
Green foxtail plant response rating (0 to 100 scale) ([1]; Rate 250 g/ha): 40 | Plant response rating, Green foxtail [1, 12]: 60 | Plant response rating, Green foxtail [1, 13]: 70 | Sugarbeets plant response rating [2, 14]: 0 | Sugarbeets plant response rating (0 to 10 scale) [2, 15]: 0 | Sugarbeets plant response rating [2, 16]: 0 | Plant response rating, Sugarbeets [2, 17]: 0 | Sugarbeets plant response rating [2, 18]: 0 | Sugarbeets plant response rating [2, 19]: 0 | Plant response rating (0 to 10; 0 is no effect, 10 is complete control), Sugarbeets ([2]; Rate 250 g/ha, Postemergence): 0 | Sugarbeets plant response rating [2, 20]: 0 | Rape plant response rating [3, 14]: 0 | Rape plant response rating (0 to 10 scale) [3, 21]: 0 | Rape plant response rating [3, 16]: 0 | Plant response rating, Rape [3, 17]: 0 | Rape plant response rating [3, 18]: 0 | Rape plant response rating [3, 19]: 0 | Plant response rating (0 to 10; 0 is no effect, 10 is complete control), Rape ([3]; Rate 250 g/ha, Postemergence): 0 | Rape plant response rating [3, 20]: 0 | Blackgrass plant response rating (0 to 100 scale) ([4]; Rate 250 g/ha): 40 | Plant response rating, Blackgrass [4, 12]: 85 | Plant response rating, Blackgrass [4, 13]: 85 | Wild oat plant response rating (0 to 100 scale) ([5]; Rate 250 g/ha): 50 | Plant response rating, Wild oat [5, 12]: 60 | Plant response rating, Wild oat [5, 13]: 50 | Barley (winter) plant response rating (0 to 100 scale) ([6]; Rate 250 g/ha): 30 | Plant response rating, Barley (winter) [6, 12]: 40 | Plant response rating, Barley (winter) [6, 13]: 50 | Barnyardgrass plant response rating ([7]; Rate 62 g/ha, headed Pre-emergence (flood test species), scale 0 to 10 (0 no effect, 10 complete control)): 0 | Barnyardgrass plant response rating ([7]; Rate 125 g/ha, Pre-emergence, flood test species, scale 0 to 10 where 0 is no effect and 10 is complete control): 0 | Barnyardgrass plant response rating ([7]; Rate 250 g/ha, Pre-emergence, flood-test species, scale 0 to 10, 0 is no effect, 10 is complete control): 0 | Barnyardgrass plant response rating ([7]; Rate 500 g/ha, Pre-emergence, flood test species, scale 0 to 10 (0 no effect, 10 complete control)): 0 | Plant response rating, Wheat (winter) ([8]; Rate 1000 g/ha, 0 is no effect and 100 is complete control): 60 | Plant response rating, Wheat (winter) ([8]; Rate 500 g/ha, 0 is no effect, 100 is complete control): 50 | Wheat (winter) plant response rating (0 to 100 scale) ([9]; Rate 250 g/ha): 30 | Plant response rating, Wheat (winter) [9, 12]: 30 | Plant response rating, Wheat (winter) [9, 13]: 30 | I. Ryegrass plant response rating (0 to 100 scale) ([10]; Rate 250 g/ha): 50 | Plant response rating, I. Ryegrass [10, 12]: 60 | Plant response rating, I. Ryegrass [10, 13]: 95 | Cocklebur plant response rating [11, 14]: 0 | Cocklebur plant response rating (0 to 10 scale) [11, 21]: 0 | Cocklebur plant response rating [11, 16]: 0 | Plant response rating, Cocklebur [11, 17]: 0 | Cocklebur plant response rating [11, 18]: 0 | Cocklebur plant response rating [11, 19]: 0 | Plant response rating (0 to 10; 0 is no effect, 10 is complete control), Cocklebur ([11]; Rate 250 g/ha, Postemergence): 0 | Cocklebur plant response rating [11, 20]: 0

CCCn1c(=O)on(C(=O)N(c2ccc(F)cc2)C(C)C)c1=O [Compound 91]
Plant response rating, Green foxtail [1, 22]: 60 | Plant response rating, Green foxtail [1, 23]: 80 | Sugarbeets plant response rating [2, 24]: 3 | Sugarbeets plant response rating [2, 25]: 6 | Sugarbeets plant response rating [2, 26]: 7 | Sugarbeets plant response rating (0 to 10 scale) [2, 15]: 7 | Plant response rating, Sugarbeets [2, 27]: 9 | Sugarbeets plant response rating [2, 28]: 10 | Plant response rating, Sugarbeets ([2]; Rate 250 g/ha, Postemergence, scale 0 to 10, 0 is no effect, 10 is complete control): 6 | Sugarbeets plant response rating [2, 29]: 6 | Rape plant response rating [3, 24]: 2 | Rape plant response rating [3, 25]: 3 | Rape plant response rating [3, 30]: 4 | Rape plant response rating [3, 26]: 7 | Plant response rating, Rape [3, 31]: 8 | Plant response rating, Rape [3, 27]: 10 | Rape plant response rating [3, 28]: 10 | Rape plant response rating [3, 29]: 10 | Plant response rating, Blackgrass [4, 22]: 20 | Plant response rating, Blackgrass [4, 23]: 60 | Plant response rating, Wild oat [5, 22]: 40 | Plant response rating, Wild oat [5, 23]: 60 | Plant response rating, Barley (winter) [6, 22]: 20 | Plant response rating, Barley (winter) [6, 23]: 40 | Plant response rating, Wheat (winter) ([8]; Rate 31 g/ha, 0 no effect, 100 complete control): 0 | Plant response rating, Wheat (winter) ([8]; Rate 62 g/ha): 10 | Plant response rating, Wheat (winter) [9, 22]: 10 | Plant response rating, Wheat (winter) [9, 23]: 40 | Plant response rating, I. Ryegrass [10, 22]: 40 | Plant response rating, I. Ryegrass [10, 23]: 40 | Cocklebur plant response rating [11, 24]: 3 | Cocklebur plant response rating [11, 25]: 3 | Cocklebur plant response rating [11, 30]: 4 | Cocklebur plant response rating [11, 26]: 0 | Plant response rating, Cocklebur [11, 31]: 0 | Cocklebur plant response rating [11, 28]: 3 | Cocklebur plant response rating [11, 29]: 4
